How the values were obtained:
ddY mice = test: Oxylipin profiling of brain regions of juvenile offspring after prenatal poly(I:C) (MIA); type: in vivo, mouse; details: juvenile offspring (P28) after prenatal poly(I:C)
Method: Administration of poly(I:C) into pregnant mice. The schedule of poly(I:C) treatment was performed as reported previously (13,36-39). The pregnant mice were injected intraperitoneally (i.p.) for six consecutive days from E12 to E17 with poly(I:C) (5.0 mg/kg/day, Sigma-Aldrich Co. Ltd., St. Louis, MO, USA) dissolved in physiological saline, or an equivalent volume (5 ml/kg) of saline. The male offspring were separated from their mothers at wearing (P21), and mice were caged each three-five in the groups in clear polycarbonate cage (22.5×33.8×14.0 cm). Mice were housed under controlled temperatures and 12-hour light/dark cycles (lights on between 07:00-19:00 h), with ad libitum food and water.
Collection of brain samples and oxylipin profiling. The pregnant mice were injected i.p. with poly(I:C) (5.0 mg/kg/day for 6 days from E12 to E17) or saline, as described above. The male offspring were separated from their mothers at wearing (P21). On P28, mice were deeply anesthetized with isoflurane and brains were removed from the skulls. For Western blot analysis, brain regions such as prefrontal cortex (PFC), striatum, CA1, CA3 and dentate gyrus (DG) of the hippocampus were dissected from brain on ice using a Leica microscope S9E (Leica Microsystems, Tokyo, Japan). The samples were stored at −80° C. before assay. For oxylipin analysis, PFC, hippocampus, and cerebellum were dissected from brain on ice, and the samples were stored at −80° C. before assay. Measurement of eicosanoids was performed at UC Davis using the previous method (57).

parvalbumin (PV) = test: PV immunohistochemistry in mPFC, offspring after MIA; type: in vivo, mouse; details: adult offspring of poly(I:C)-treated mice vs saline-treated group
Method: Immunohistochemistry. Immunohistochemistry of PV was performed as reported previously (37,39,59,60). Mice were anesthetized with 5% isoflurane and sodium pentobarbital (50 mg/kg), and perfused transcardially with 10 mL of physiological saline, followed by 40 mL of ice-cold 4% paraformaldehyde in 0.1M phosphate buffer (pH 7.4). Brains were removed from the skulls and post fixed overnight at 4° C. in the same fixative. For the immunohistochemical analysis, 50 μm-thick serial, coronal sections of brain tissue were cut in ice-cold 0.01M phosphate buffered saline (pH 7.5) using a vibrating blade microtome (VT1000s, Leica Microsystems, Tokyo, Japan). Free-floating sections were treated with 0.3% H2O2 in 50 mM Tris-HCl saline (TBS) for 30 min and were blocked in TBS containing 0.2% Triton X-100 (TBST) and 1.5% normal serum for 1 h at room temperature. […] The sections were imaged, and the staining intensity of PV (or GADO immunoreactivity in the inflalimbic (IL) and prelimbic (PrL) regions of mPFC was analyzed using a light micro-scope equipped with a CCD camera (Olympus IX70, Tokyo, Japan) and the SCION IMAGE software package. Images of sections within mPFC region were captured using a 100× objective with a Keyence BZ-X710 microscope (Keyence Corporation, Osaka, Japan).

In the case of “polyriboinosinic-polyribocytidilic acid [Poly(I:C)]”, the “5(6)-EpETrE level” value (ddY mice; PFC) is reported as 222.07 ± 22.38 pmol/g tissue, the 6-keto-PGF1α level (ddY mice; PFC) is reported as 22.088 ± 1.785 pmol/g tissue and the “8(9)-EpETrE level” value (ddY mice; PFC) is reported as 6.725 ± 0.892 pmol/g tissue. For the same substance, the “9(10)-EpOME level” value (ddY mice; PFC) was 2.695 ± 0.424 pmol/g tissue, the “9,10,13-TriHOME level” value (ddY mice; PFC) was 22.676 ± 3.814 pmol/g tissue and the “9,10-DiHOME level” value (ddY mice; PFC) was 1.069 ± 0.188 pmol/g tissue. The “9,12,13-TriHOME level” value (ddY mice; PFC) was 39.728 ± 6.854 pmol/g tissue, the 9-HODE level (ddY mice; PFC) was 24.253 ± 3.782 pmol/g tissue and the 9-oxo-ODE level (ddY mice; PFC) was 15.032 ± 2.690 pmol/g tissue. The “10(11)-EpDPE level” value (ddY mice; PFC) was 3.698 ± 0.292 pmol/g tissue, the “11(12)-EpETrE level” value (ddY mice; PFC) was 26.639 ± 3.530 pmol/g tissue and the 11-HETE level (ddY mice; PFC) was 72.292 ± 5.677 pmol/g tissue. For the same substance, the “12(13)-EpOME level” value (ddY mice; PFC) was 2.934 ± 0.435 pmol/g tissue, the “12,13-DiHOME level” value (ddY mice; PFC) was 4.640 ± 0.477 pmol/g tissue and the 12-HETE level (ddY mice; PFC) was 28.597 ± 2.727 pmol/g tissue. The 13-HODE level (ddY mice; PFC) was 31.020 ± 5.237 pmol/g tissue, the “14(15)-EpETrE level” value (ddY mice; PFC) was 30.74 ± 5.605 pmol/g tissue and the “15,16-DiHODE level” value (ddY mice; PFC) was 2.785 ± 0.414 pmol/g tissue. The 15-HETE level (ddY mice; PFC) was 68.997 ± 4.672 pmol/g tissue, the “19,20-DiHDPE level” value (ddY mice; PFC) was 4.319 ± 0.331 pmol/g tissue and the EKODE level (ddY mice; PFC) was 6.552 ± 1.725 pmol/g tissue. The PGD2 level (ddY mice; PFC) was 147.79 ± 9.748 pmol/g tissue, the PGE2 level (ddY mice; PFC) was 16.359 ± 1.175 pmol/g tissue and the PGF2a level (ddY mice; PFC) was 86.798 ± 6.454 pmol/g tissue. For the same substance, the “Thromboxane B2 level” value (ddY mice; PFC) was 43.922 ± 3.349 pmol/g tissue, the “5(6)-EpETrE level” value (ddY mice; cerebellum) was 174.37 ± 11.71 pmol/g tissue and the 6-keto-PGF1a level (ddY mice; cerebellum) was 29.69 ± 1.379 pmol/g tissue. For the same substance, the “8(9)-EpETrE level” value (ddY mice; cerebellum) was 5.453 ± 0.582 pmol/g tissue, the “9(10)-EpOME level” value (ddY mice; cerebellum) was 3.076 ± 0.662 pmol/g tissue and the “9,10,13-TriHOME level” value (ddY mice; cerebellum) was 20.84 ± 3.099 pmol/g tissue. For the same substance, the “9,10-DiHOME level” value (ddY mice; cerebellum) was 1.283 ± 0.279 pmol/g tissue, the “9,12,13-TriHOME level” value (ddY mice; cerebellum) was 37.62 ± 5.925 pmol/g tissue and the 9-HODE level (ddY mice; cerebellum) was 23.33 ± 2.571 pmol/g tissue. The 9-oxo-ODE level (ddY mice; cerebellum) was 16.56 ± 2.802 pmol/g tissue, the “10(11)-EpDPE level” value (ddY mice; cerebellum) was 6.061 ± 0.717 pmol/g tissue and the “11(12)-EpETrE level” value (ddY mice; cerebellum) was 21.10 ± 1.869 pmol/g tissue. For the same substance, the “12(13)-EpOME level” value (ddY mice; cerebellum) was 2.989 ± 0.423 pmol/g tissue, the “12,13-DiHOME level” value (ddY mice; cerebellum) was 5.406 ± 0.682 pmol/g tissue and the 13-HODE level (ddY mice; cerebellum) was 30.47 ± 4.048 pmol/g tissue. For the same substance, the “14(15)-EpETrE level” value (ddY mice; cerebellum) was 26.63 ± 3.595 pmol/g tissue, the “15,16-DiHODE level” value (ddY mice; cerebellum) was 2.772 ± 0.423 pmol/g tissue and the 15-HETE level (ddY mice; cerebellum) was 36.59 ± 3.256 pmol/g tissue. The “19,20-DiHDPE level” value (ddY mice; cerebellum) was 9.767 ± 0.858 pmol/g tissue, the EKODE level (ddY mice; cerebellum) was 7.801 ± 1.325 pmol/g tissue and the PGD2 level (ddY mice; cerebellum) was 21.60 ± 1.774 pmol/g tissue. It also gave a PGE2 level (ddY mice; cerebellum) of 6.969 ± 0.684 pmol/g tissue, a PGF2a level (ddY mice; cerebellum) of 46.32 ± 3.830 pmol/g tissue and a TXB2 level (ddY mice; cerebellum) of 14.62 ± 0.876 pmol/g tissue. The 12-HETE level (ddY mice; cerebellum, first of two lines printed 12-HETE (r21)) was 34.19 ± 3.215 pmol/g tissue, the 12-HETE level (ddY mice; cerebellum, second of two lines printed 12-HETE (r23)) was 75.46 ± 28.38 pmol/g tissue and the “5(6)-EpETrE level” value (ddY mice; hippocampus) was 333.09 ± 30.68 pmol/g tissue. The 6-keto-PGF1α level (ddY mice; hippocampus) was 47.853 ± 3.589 pmol/g tissue, the “8(9)-EpETrE level” value (ddY mice; hippocampus) was 10.53 ± 0.809 pmol/g tissue and the “9(10)-EpOME level” value (ddY mice; hippocampus) was 3.933 ± 0.304 pmol/g tissue. For the same substance, the “9,10,13-TriHOME level” value (ddY mice; hippocampus) was 31.142 ± 2.301 pmol/g tissue, the “9,10-DiHOME level” value (ddY mice; hippocampus) was 0.814 ± 0.116 pmol/g tissue and the “9,12,13-TriHOME level” value (ddY mice; hippocampus) was 54.137 ± 3.954 pmol/g tissue. For the same substance, the 9-HODE level (ddY mice; hippocampus) was 34.887 ± 1.969 pmol/g tissue, the 9-oxo-ODE level (ddY mice; hippocampus) was 24.50 ± 1.957 pmol/g tissue and the “10(11)-EpDPE level” value (ddY mice; hippocampus) was 6.103 ± 0.347 pmol/g tissue. For the same substance, the “11(12)-EpETrE level” value (ddY mice; hippocampus) was 42.05 ± 3.911 pmol/g tissue, the 11-HETE level (ddY mice; hippocampus) was 106.263 ± 6.366 pmol/g tissue and the “12(13)-EpOME level” value (ddY mice; hippocampus) was 4.641 ± 0.393 pmol/g tissue. For the same substance, the “12,13-DiHOME level” value (ddY mice; hippocampus) was 4.478 ± 0.528 pmol/g tissue, the 12-HETE level (ddY mice; hippocampus) was 83.22 ± 12.09 pmol/g tissue and the 13-HODE level (ddY mice; hippocampus) was 41.916 ± 2.454 pmol/g tissue. The “14(15)-EpETrE level” value (ddY mice; hippocampus) was 45.020 ± 3.734 pmol/g tissue, the “15,16-DiHODE level” value (ddY mice; hippocampus) was 2.295 ± 0.364 pmol/g tissue and the 15-HETE level (ddY mice; hippocampus) was 100.514 ± 6.210 pmol/g tissue. The “19,20-DiHDPE level” value (ddY mice; hippocampus) was 4.228 ± 0.321 pmol/g tissue, the EKODE level (ddY mice; hippocampus) was 14.86 ± 0.949 pmol/g tissue and the PGD2 level (ddY mice; hippocampus) was 119.25 ± 8.999 pmol/g tissue. The PGE2 level (ddY mice; hippocampus) was 20.186 ± 1.410 pmol/g tissue, the PGF2a level (ddY mice; hippocampus) was 153.113 ± 10.00 pmol/g tissue and the “Thromboxane B2 level” value (ddY mice; hippocampus) was 65.491 ± 5.906 pmol/g tissue. For the same substance, the “PV-IR in the PrL of mPFC” value (parvalbumin (PV)) was “significantly lower”.
